These molecules were tested against T1, Ubiquitin-conjugating enzyme E2 N (Homo sapiens, UniProt P61088) (assay: UBC13 polyubiquitination inhibitor potency, dose response, biochemical, TR-FRET, reconfirmation (AID 493182)).
T1 sequence (P61088 whole entry): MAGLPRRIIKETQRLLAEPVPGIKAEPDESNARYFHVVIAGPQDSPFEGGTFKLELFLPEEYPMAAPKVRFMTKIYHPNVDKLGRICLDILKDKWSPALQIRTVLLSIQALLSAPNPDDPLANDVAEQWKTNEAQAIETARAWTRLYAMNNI

SMILES | IC50 [nM]
C#CCOCCOCCOCCNc1nc(N2CCN(C(=O)CCCCCCCCCCNC(=O)Cn3cc(CCCCCN)nn3)CC2)nc(N2CCN(C(=O)CCCCCCCCCCNC(=O)[C@H]([C@@H](C)CC)n3cc(CCCCN=C(N)N)nn3)CC2)n1 [KG-RI] | 2110
CCOc1ccc(-c2csc(NC(=O)c3cccc(-n4c(O)ccc4O)c3)n2)cc1 [SMR000319795] | > 20000
C#CCOCCOCCOCCNc1nc(N2CCN(C(=O)CCCCCCCCCCNC(=O)[C@H](CCCCN)n3cc(CCO)nn3)CC2)nc(N2CCN(C(=O)CCCCCCCCCCNC(=O)[C@H](CCCCN)n3cc(CCCC(=O)O)nn3)CC2)n1 [MLS002153608] | 10400
Cc1cccc(NC(=S)NNC2=c3ccccc3=NC2=O)c1 | 594
C#CCOCCOCCOCCNc1nc(N2CCN(C(=O)CCCCCCCCCCNC(=O)[C@H](CCCCN)n3cc(C)nn3)CC2)nc(N2CCN(C(=O)CCCCCCCCCCNC(=O)[C@@H]([C@H](C)CC)n3cc(CCCCCN)nn3)CC2)n1 [MLS002153655] | 2230
N=C(N)C1=CC(=O)/C(=C/C=c2ccc(=C(N)N)cc2)C=C1 [(4E)-4-[2-[4-[bis(azanyl)methylidene]cyclohexa-2,5-dien-1-ylidene]ethylidene]-3-oxidanylidene-cyclohexa-1,5-diene-1-carboximidamide;2-oxidanylethanesulfonic acid] | 2800
COc1ccc2nc(C)cc(N=NCc3ccc(F)cc3)c2c1 [N-[(4-fluorophenyl)methylideneamino]-6-methoxy-2-methyl-4-quinolinamine] | 10100
NC(=S)NN=C1C(=O)N(CCCl)c2ccccc21 | 10800
